Data on 59 sequences can be found in the supplement of paper PMC11208160.
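Also: IS621 recombinase and bridge RNA in Escherichia coli cells.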

A short description of the data set: recombinant barcode read abundance after kanamycin selection (control-corrected) (log10(CPM+1)); higher = more efficient recombination; sequences stand for … in AGTGCAGAGAAAATCGGCCAGTTTTCTCTGCCTGCAGTCCGCATGCCGT…AGATTTATGCAGCGGACTGCCTTTCTCCCAAAGTGATAAACCGGACAGTATCATGGACCGGTTTTCCCGGTAATCCGTATTTGCAAGGTTGGTTTCACT; site = the 11-nt target. The essentials:
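A vector carrying a T7-inducible recombinase and the last 73 bp of the bridge RNA received, by Gibson cloning, oligos encoding a promoter, target, barcode and the first 104 bridge RNA bases under J23119. The pooled constructs entered E. coli together with a donor plasmid by electroporation. Selection used chloramphenicol/ampicillin/kanamycin with 0.1 mM IPTG, with chloramphenicol/ampicillin LB agar as the control, each in two replicates. Recombination efficiency is the averaged, control-corrected counts-per-million of barcodes at recombinant junctions, reported as log10(CPM+1).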
Take “AGTCACACTTGGGTTCTAACCTGTTGCTG (site AGTCACACTCA)”: the “recombinant barcode read abundance (log10)” value worked out at 1.18.

Take “AGTCACACTTGGGTTCTAACCTGTTGCTG (site AGTCACACTTA)”: the “recombinant barcode read abundance (log10)” value came out at 0.

For the sequence “AGTCCACCTTGGGTTCTAACCTGTTGCCT (site AGTCCACCTAG)”, the “recombinant barcode read abundance (log10)” value was found to be 1.53.

Regarding “AGTCCACCTTGGGTTCTAACCTGTTGCCT (site CGTCCACCTAG)”, the “recombinant barcode read abundance (log10)” value amounted to 0.166.

With “AGTCCACCTTGGGTTCTAACCTGTTGCCT (site GGTCCACCTAG)”, the “recombinant barcode read abundance (log10)” value came to 0.132.

Regarding “AGTCCACCTTGGGTTCTAACCTGTTGCCT (site TGTCCACCTAG)”, the “recombinant barcode read abundance (log10)” value stood at 0.49.

Turning to “AGTCCGTCTTGGGTTCTAACCTGTTGCAT (site AGTCCGTCTAT)”, the “recombinant barcode read abundance (log10)” value was 1.29.

With “AGTCCGTCTTGGGTTCTAACCTGTTGCAT (site CTAATAGCTTG)”, the “recombinant barcode read abundance (log10)” value came to 0.0391.

In the case of “AGTCGGACTTGGGTTCTAACCTGTTGCTT (site AGTCATACTAA)”, the “recombinant barcode read abundance (log10)” value worked out at 0.446.

“AGTCGGACTTGGGTTCTAACCTGTTGCTT (site AGTCGGACTAA)”: the “recombinant barcode read abundance (log10)” value was determined as 0.517.

Regarding “AGTCGTACTTGGGTTCTAACCTGTTGCCT (site AGACGTACTAG)”, the “recombinant barcode read abundance (log10)” value came out at 0.166.

In the case of “AGTCGTACTTGGGTTCTAACCTGTTGCCT (site AGCCGTACTAG)”, the “recombinant barcode read abundance (log10)” value was 0.213.

Turning to “AGTCGTACTTGGGTTCTAACCTGTTGCCT (site AGGCGTACTAG)”, the “recombinant barcode read abundance (log10)” value worked out at 0.0589.

Regarding “AGTCGTACTTGGGTTCTAACCTGTTGCCT (site AGTCGTACTAG)”, the “recombinant barcode read abundance (log10)” value was determined as 0.536.

As to “AGTCTAGCTTGGGTTCTAACCTGTTGCCA (site AGTCTAGCTAG)”, the “recombinant barcode read abundance (log10)” value came out at 0.176.

On to “AGTCTAGCTTGGGTTCTAACCTGTTGCCA (site AGTCTAGCTCG)”, for which the “recombinant barcode read abundance (log10)” value is 0.217.

In the case of “AGTCTAGCTTGGGTTCTAACCTGTTGCCA (site AGTCTAGCTGG)”, the “recombinant barcode read abundance (log10)” value amounted to 0.548.

For “AGTCTAGCTTGGGTTCTAACCTGTTGCCA (site AGTCTAGCTTG)”, the “recombinant barcode read abundance (log10)” value came to 0.493.

As to “AGTCTAGCTTGGGTTCTAACCTGTTGCGG (site AGGATAGCTCC)”, the “recombinant barcode read abundance (log10)” value came out at 0.479.

With “AGTCTAGCTTGGGTTCTAACCTGTTGCGG (site AGTCTAGCTCC)”, the “recombinant barcode read abundance (log10)” value worked out at 1.33.

For the sequence “AGTCTGCCTTGGGTTCTAACCTGTTGCCT (site AGTCTGCCTAG)”, the “recombinant barcode read abundance (log10)” value came to 0.427.

As to “AGTCTGCCTTGGGTTCTAACCTGTTGCCT (site CGTCTGCCTAG)”, the “recombinant barcode read abundance (log10)” value turned out to be 0.0547.

On to “AGTCTGCCTTGGGTTCTAACCTGTTGCCT (site GGTCTGCCTAG)”, for which the “recombinant barcode read abundance (log10)” value was determined as 0.0978.

Consider “AGTCTGCCTTGGGTTCTAACCTGTTGCCT (site TGTCTGCCTAG)”, for which the “recombinant barcode read abundance (log10)” value amounted to 0.0318.

Regarding “AGTGAACCTTGGGTTCTAACCTGTTGCCT (site AGCTAACCTAG)”, the “recombinant barcode read abundance (log10)” value turned out to be 0.013.

With “AGTGAACCTTGGGTTCTAACCTGTTGCCT (site AGTGAACCTAG)”, the “recombinant barcode read abundance (log10)” value was 1.84.

“AGTGAATCTTGGGTTCTAACCTGTTGCCT (site AGAGAATCTAG)”: the “recombinant barcode read abundance (log10)” value came to 0.13.

With “AGTGAATCTTGGGTTCTAACCTGTTGCCT (site AGCGAATCTAG)”, the “recombinant barcode read abundance (log10)” value is 0.249.

Turning to “AGTGAATCTTGGGTTCTAACCTGTTGCCT (site AGGGAATCTAG)”, the “recombinant barcode read abundance (log10)” value turned out to be 0.286.

As for “AGTGAATCTTGGGTTCTAACCTGTTGCCT (site AGTGAATCTAG)”, the “recombinant barcode read abundance (log10)” value amounted to 0.541.

As to “AGTGCGTCTTGGGTTCTAACCTGTTGCCT (site AGTGCGTCTAG)”, the “recombinant barcode read abundance (log10)” value is 1.52.

As for “AGTGCGTCTTGGGTTCTAACCTGTTGCCT (site CGTGCGTCTAG)”, the “recombinant barcode read abundance (log10)” value is 0.043.

With “AGTGCGTCTTGGGTTCTAACCTGTTGCCT (site GGTGCGTCTAG)”, the “recombinant barcode read abundance (log10)” value came to 0.241.

On to “AGTGCGTCTTGGGTTCTAACCTGTTGCCT (site TGTGCGTCTAG)”, for which the “recombinant barcode read abundance (log10)” value was found to be 0.0164.

For the sequence “AGTGCTCCTTGGGTTCTAACCTGTTGCGG (site AGAGCTCCTCC)”, the “recombinant barcode read abundance (log10)” value was 0.196.

As for “AGTGCTCCTTGGGTTCTAACCTGTTGCGG (site AGTGCTCCTCC)”, the “recombinant barcode read abundance (log10)” value is 0.18.

As for “AGTGTCACTTGGGTTCTAACCTGTTGCGG (site AGTGTCACTCC)”, the “recombinant barcode read abundance (log10)” value was determined as 2.77.

On to “AGTGTCACTTGGGTTCTAACCTGTTGCGG (site GTGCAACCTAG)”, for which the “recombinant barcode read abundance (log10)” value was found to be 0.0283.

On to “AGTTAATCTTGGGTTCTAACCTGTTGCTT (site AGCTACTCTAA)”, for which the “recombinant barcode read abundance (log10)” value is 0.0347.

For the sequence “AGTTAATCTTGGGTTCTAACCTGTTGCTT (site AGTTAATCTAA)”, the “recombinant barcode read abundance (log10)” value amounted to 0.0371.

Consider “AGTTAGTCTTGGGTTCTAACCTGTTGCGG (site AATTAGTCTCC)”, for which the “recombinant barcode read abundance (log10)” value is 0.00949.

On to “AGTTAGTCTTGGGTTCTAACCTGTTGCGG (site AGTTAGTCTCC)”, for which the “recombinant barcode read abundance (log10)” value amounted to 1.43.

Consider “AGTTGCTCTTGGGTTCTAACCTGTTGCCT (site AGTTGCTCTAG)”, for which the “recombinant barcode read abundance (log10)” value was determined as 0.468.

Turning to “AGTTGCTCTTGGGTTCTAACCTGTTGCCT (site GGTTGCACTAG)”, the “recombinant barcode read abundance (log10)” value was 0.268.

Consider “AGTTGTCCTTGGGTTCTAACCTGTTGCGT (site AGTTGTCCTAA)”, for which the “recombinant barcode read abundance (log10)” value turned out to be 0.121.

Take “AGTTGTCCTTGGGTTCTAACCTGTTGCGT (site AGTTGTCCTAC)”: the “recombinant barcode read abundance (log10)” value is 1.21.

Consider “AGTTGTCCTTGGGTTCTAACCTGTTGCGT (site AGTTGTCCTAG)”, for which the “recombinant barcode read abundance (log10)” value came to 0.108.

Take “AGTTGTCCTTGGGTTCTAACCTGTTGCGT (site AGTTGTCCTAT)”: the “recombinant barcode read abundance (log10)” value came out at 0.251.

On to “AGTTTCACTTGGGTTCTAACCTGTTGCTA (site AGTTTCACTTA)”, for which the “recombinant barcode read abundance (log10)” value came to 0.111.

“AGTTTCACTTGGGTTCTAACCTGTTGCTA (site GCCAAGGCTAG)”: the “recombinant barcode read abundance (log10)” value is 1.31.

For “AGTTTCGCTTGGGTTCTAACCTGTTGCGG (site AGTATCGCTCC)”, the “recombinant barcode read abundance (log10)” value is 0.215.

Consider “AGTTTCGCTTGGGTTCTAACCTGTTGCGG (site AGTCTCGCTCC)”, for which the “recombinant barcode read abundance (log10)” value was determined as 0.0337.

Take “AGTTTCGCTTGGGTTCTAACCTGTTGCGG (site AGTGTCGCTCC)”: the “recombinant barcode read abundance (log10)” value was 0.0655.

Turning to “AGTTTCGCTTGGGTTCTAACCTGTTGCGG (site AGTTTCGCTCC)”, the “recombinant barcode read abundance (log10)” value was 0.0842.

“ATAAGAGCTTGGGTTCTAACCTGTTGCCT (site ATAAAAGCTAG)”: the “recombinant barcode read abundance (log10)” value worked out at 0.385.

On to “ATAAGAGCTTGGGTTCTAACCTGTTGCCT (site ATAACAGCTAG)”, for which the “recombinant barcode read abundance (log10)” value was found to be 0.0202.

For the sequence “ATAAGAGCTTGGGTTCTAACCTGTTGCCT (site ATAAGAGCTAG)”, the “recombinant barcode read abundance (log10)” value was determined as 1.15.

As for “ATAAGAGCTTGGGTTCTAACCTGTTGCCT (site ATAATAGCTAG)”, the “recombinant barcode read abundance (log10)” value was found to be 0.179.

As for “ATAAGCTCTTGGGTTCTAACCTGTTGCCG (site ATAAGCTCTCG)”, the “recombinant barcode read abundance (log10)” value stood at 1.92.
